In ChEMBL document CHEMBL1201862, “PubChem BioAssay data set” (2004):
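How tested: cells in 96-well plates exposed to compound for 48 hours at five concentrations. GI50 marks 50% less growth.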 Active and inactive are the calls of the source. No stated cut-off is given here; in the data, active = GI50 up to about 1.1 µM and inactive = higher. Where a SMILES comes first, the peptide text is derived from it. [ ]: non-standard residue; d: D form. The star is where a group is joined. ξ: configuration not given here. X38 = O=C(OCc1ccccc1)[C@@H]1CCC[C@H]1N*; Fmoc = O=C(OCC1c2ccccc2-c2ccccc21)*; ξW = NC(Cc1c[nH]c2ccccc12)C(=O)O; ξF = NC(Cc1ccccc1)C(=O)O; Boc = CC(C)(C)OC(=O)*; ξK = NCCCCC(N)C(=O)O; ξT = CC(O)C(N)C(=O)O; tBu = CC(C)(C)*

Experiments:
Assay in all cases: inhibition of tumour cell growth, NCI panel, 48 h
A498 = system: A498
SR = system: SR
MDA-MB-435 = system: MDA-MB-435
UO-31 = system: UO-31
UACC-62 = system: UACC-62
CCRF-CEM = system: CCRF-CEM
U-251 = system: U-251
MDA-N = system: MDA-N
K562 = system: K562
SNB-19 = system: SNB-19
KM12 = system: KM12
NCI-H23 = system: NCI-H23
HL-60 = system: HL-60
RPMI-8226 = system: RPMI-8226
OVCAR-8 = system: OVCAR-8
OVCAR-4 = system: OVCAR-4
BT-549 = system: BT-549
SN12C = system: SN12C
ACHN = system: ACHN
SK-MEL-28 = system: SK-MEL-28
CAKI-1 = system: CAKI-1
NCI-H226 = system: NCI-H226
UACC-257 = system: UACC-257
MOLT-4 = system: MOLT-4
MDA-MB-231 = system: MDA-MB-231
SF-268 = system: SF-268
SW-620 = system: SW-620
HCT-15 = system: HCT-15
SNB-75 = system: SNB-75
HOP-92 = system: HOP-92
TK-10 = system: TK-10
NCI/ADR-RES = system: NCI/ADR-RES
NCI-H460 = system: NCI-H460
EKVX = system: EKVX
HCC 2998 = system: HCC 2998
SK-OV-3 = system: SK-OV-3
OVCAR-3 = system: OVCAR-3
LOX IMVI = system: LOX IMVI
HT-29 = system: HT-29
SF-539 = system: SF-539
M14 = system: M14
Hs-578T = system: Hs-578T
COLO 205 = system: COLO 205
HCT-116 = system: HCT-116
DU-145 = system: DU-145
SF-295 = system: SF-295
SK-MEL-5 = system: SK-MEL-5
Malme-3M = system: Malme-3M
RXF 393 = system: RXF 393
IGROV-1 = system: IGROV-1
A549 = system: A549
PC-3 = system: PC-3
OVCAR-5 = system: OVCAR-5
HOP-62 = system: HOP-62
MCF7 = system: MCF7
SK-MEL-2 = system: SK-MEL-2
T47D = system: T47D
NCI-H522 = system: NCI-H522
786-0 = system: 786-0

Measured: GI50

CC1(C)C2CCC(CN)(C2)C1O (stereo unspecified)
inactive: A498 > 100 µM | SR > 100 µM | MDA-MB-435 65.6 µM | UO-31 > 100 µM | UACC-62 > 100 µM | CCRF-CEM > 100 µM | U-251 > 100 µM | MDA-N > 100 µM | K562 > 100 µM | SNB-19 > 100 µM | KM12 > 100 µM | NCI-H23 > 100 µM | HL-60 > 100 µM | RPMI-8226 > 100 µM | OVCAR-8 > 100 µM | OVCAR-4 > 100 µM | BT-549 > 100 µM | SN12C > 100 µM | ACHN > 100 µM | SK-MEL-28 > 100 µM | CAKI-1 > 100 µM | NCI-H226 > 100 µM | UACC-257 > 100 µM | MOLT-4 > 100 µM | MDA-MB-231 > 100 µM | SF-268 > 100 µM | SW-620 > 100 µM | SNB-75 > 100 µM | HOP-92 > 100 µM | TK-10 > 100 µM | NCI/ADR-RES 80.2 µM | NCI-H460 > 100 µM | EKVX > 100 µM | HCC 2998 > 100 µM
> 100 µM: HCT-15

c1ccc([P+](CCN2Cc3ccccc3C2)(c2ccccc2)c2ccccc2)cc1
inactive: A498 18 µM | SR 4.33 µM | SK-OV-3 20.7 µM | OVCAR-3 3.13 µM | MDA-MB-435 3.58 µM | LOX IMVI 3.84 µM | UO-31 12.1 µM | HT-29 3.52 µM | SF-539 6.15 µM | UACC-62 2.85 µM | CCRF-CEM 2.64 µM | U-251 2.19 µM | M14 5.36 µM | Hs-578T 12.5 µM | MDA-N 3.27 µM | COLO 205 1.56 µM | K562 2.79 µM | SNB-19 6.7 µM | HCT-116 3 µM | KM12 3.23 µM | NCI-H23 5.46 µM | HL-60 2.77 µM | DU-145 5.87 µM | OVCAR-8 2.32 µM | SF-295 6.92 µM | SK-MEL-5 2.04 µM | Malme-3M 8.59 µM | SN12C 4.56 µM | RXF 393 5.35 µM | ACHN 5.69 µM | A549 4.99 µM | SK-MEL-28 2.74 µM | PC-3 4.8 µM | CAKI-1 38.3 µM | NCI-H226 3.84 µM | OVCAR-5 16.6 µM | HOP-62 8.67 µM | MCF7 3.59 µM | SK-MEL-2 2.27 µM | T47D 2.4 µM | NCI-H522 2.73 µM | UACC-257 2.35 µM | MOLT-4 6.44 µM | MDA-MB-231 3.94 µM | SF-268 5.77 µM | SW-620 4.22 µM | 786-0 8.17 µM | SNB-75 2.12 µM | TK-10 10.4 µM | NCI/ADR-RES 69.5 µM | NCI-H460 5.79 µM | EKVX 3.84 µM | HCC 2998 2.94 µM
12.7 µM: HCT-15
active: RPMI-8226 0.051 µM | IGROV-1 0.368 µM | HOP-92 1.08 µM

CC(OC(C)(C)C)C(NC(=O)C(CCCCNC(=O)OC(C)(C)C)NC(=O)C(Cc1c[nH]c2ccccc12)NC(=O)C(Cc1ccccc1)NC(=O)OCC1c2ccccc2-c2ccccc21)C(=O)NC(Cc1ccccc1)C(=O)N[C@@H]1CCC[C@H]1C(=O)OCc1ccccc1 (stereo partly specified) (Fmoc-[ξF][ξW][ξK](Boc)[ξT](tBu)[ξF]-X38)
inactive: A498 > 10 µM | SR > 100 µM | SK-OV-3 > 100 µM | OVCAR-3 > 100 µM | MDA-MB-435 > 100 µM | LOX IMVI > 100 µM | UO-31 > 100 µM | HT-29 > 100 µM | SF-539 > 100 µM | UACC-62 > 100 µM | CCRF-CEM > 100 µM | U-251 > 100 µM | M14 38.9 µM | Hs-578T 31 µM | MDA-N > 100 µM | COLO 205 > 100 µM | K562 > 100 µM | HCT-116 > 100 µM | KM12 > 100 µM | NCI-H23 > 100 µM | HL-60 > 100 µM | RPMI-8226 > 100 µM | DU-145 > 100 µM | OVCAR-8 > 100 µM | OVCAR-4 > 100 µM | SF-295 > 100 µM | SK-MEL-5 14.6 µM | Malme-3M > 100 µM | SN12C > 100 µM | RXF 393 > 100 µM | ACHN > 100 µM | IGROV-1 > 100 µM | A549 > 100 µM | SK-MEL-28 > 100 µM | PC-3 > 100 µM | CAKI-1 62.2 µM | NCI-H226 > 100 µM | OVCAR-5 > 100 µM | HOP-62 > 100 µM | MCF7 > 100 µM | SK-MEL-2 32.1 µM | T47D > 100 µM | NCI-H522 > 100 µM | UACC-257 > 100 µM | MOLT-4 > 100 µM | MDA-MB-231 65.3 µM | SF-268 > 100 µM | SW-620 > 100 µM | 786-0 > 100 µM | SNB-75 > 100 µM | HOP-92 > 100 µM | TK-10 > 100 µM | NCI/ADR-RES > 100 µM | NCI-H460 > 100 µM | EKVX > 100 µM | HCC 2998 > 100 µM
> 100 µM: HCT-15

CC1CC(N)=Nc2ccccc2N1 (stereo unspecified)
inactive: SK-OV-3 > 100 µM | OVCAR-3 > 100 µM | MDA-MB-435 > 100 µM | LOX IMVI > 100 µM | UO-31 > 100 µM | HT-29 > 100 µM | UACC-62 > 100 µM | CCRF-CEM > 100 µM | U-251 > 100 µM | M14 > 100 µM | Hs-578T > 100 µM | MDA-N > 100 µM | COLO 205 > 100 µM | K562 > 100 µM | SNB-19 > 100 µM | HCT-116 > 100 µM | KM12 > 100 µM | NCI-H23 > 100 µM | HL-60 > 100 µM | RPMI-8226 > 100 µM | DU-145 > 100 µM | OVCAR-8 > 100 µM | OVCAR-4 > 100 µM | SF-295 > 100 µM | SK-MEL-5 > 100 µM | Malme-3M 58.2 µM | BT-549 > 100 µM | SN12C > 100 µM | RXF 393 > 100 µM | ACHN > 100 µM | IGROV-1 54.2 µM | A549 > 100 µM | SK-MEL-28 > 100 µM | PC-3 > 100 µM | CAKI-1 > 100 µM | NCI-H226 > 100 µM | OVCAR-5 > 100 µM | HOP-62 > 100 µM | SK-MEL-2 > 100 µM | NCI-H522 > 100 µM | UACC-257 > 100 µM | MOLT-4 > 100 µM | MDA-MB-231 > 100 µM | SF-268 > 100 µM | SW-620 > 100 µM | 786-0 > 100 µM | SNB-75 30.1 µM | TK-10 > 100 µM | NCI/ADR-RES > 100 µM | EKVX > 100 µM | HCC 2998 > 100 µM
> 100 µM: HCT-15
